What was measured:
Experiment in all cases: relative viability (nuclei count vs DMSO), 5 days (fraction); higher = more cells survive
[1] = compound: C1/C(=C\C2=CC=CS2)/C(=O)/C(=C/C3=CC=CS3)/C1 + CCNC(=O)c1noc(-c2cc(C(C)C)c(O)cc2O)c1-c1ccc(CN2CCOCC2)cc1 [Luminespib] (partner 0.01 µM)
Outline: (§1)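 The day after seeding in 1536-well plates, lung cancer cell lines were treated by pin tool with a single drug, or with a fixed anchor-drug dose together with five library-drug doses (not always all listed) in √10 steps. After 5 days, a combined fix-and-stain solution (final 0.05% Triton X-100, 1% formaldehyde, 1 ug/ml Hoechst) was added. Nuclei counted on 4× images gave relative viability as treated counts over vehicle counts, reported as the median of duplicate plates.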

TPCA-1 + Foretinib = compound: C1=CC(=CC=C1C2=CC(=C(S2)NC(=O)N)C(=O)N)F [TPCA-1] + COc1cc2c(Oc3ccc(NC(=O)C4(C(=O)Nc5ccc(F)cc5)CC4)cc3F)ccnc2cc1OCCCN1CCOCC1 [Foretinib] (partner 0.25 µM)
Outline: as §1

Lestaurtinib + OSI-027 = compound: C[C@]12O[C@H](C[C@]1(O)CO)n1c3ccccc3c3c4c(c5c6ccccc6n2c5c31)CNC4=O [Lestaurtinib] + COc1cccc2cc(-c3nc([C@H]4CC[C@H](C(=O)O)CC4)n4ncnc(N)c34)[nH]c12 [OSI-027] (partner 0.5 µM)
Outline: as §1

[2] = compound: C1/C(=C\C2=CC=CS2)/C(=O)/C(=C/C3=CC=CS3)/C1 + Nc1nc2[nH]cc(CCc3ccc(C(=O)N[C@@H](CCC(=O)O)C(=O)O)cc3)c2c(=O)[nH]1 [Pemetrexed] (partner 0.2 µM)
Outline: as §1

## NCI-H3122
[1]; first compound 0.2 µM
  relative viability: 0.112
[1]; first compound 0.6325 µM
  relative viability: 0.0975
[1]; first compound 2 µM
  relative viability: 0.0926
[1]; first compound 6.325 µM
  relative viability: 0.0901
[1]; first compound 20 µM
  relative viability: 0.086
TPCA-1 + Foretinib; first compound 0.04 µM
  relative viability: 1.06
TPCA-1 + Foretinib; first compound 0.1265 µM
  relative viability: 0.914
TPCA-1 + Foretinib; first compound 0.4 µM
  relative viability: 1.02
TPCA-1 + Foretinib; first compound 1.265 µM
  relative viability: 0.928
TPCA-1 + Foretinib; first compound 4 µM
  relative viability: 0.909
Lestaurtinib + OSI-027; first compound 0.005 µM
  relative viability: 1.36
Lestaurtinib + OSI-027; first compound 0.01581 µM
  relative viability: 1.4
Lestaurtinib + OSI-027; first compound 0.05 µM
  relative viability: 0.99
Lestaurtinib + OSI-027; first compound 0.1581 µM
  relative viability: 0.875
Lestaurtinib + OSI-027; first compound 0.5 µM
  relative viability: 0.339
[2]; first compound 0.2 µM
  relative viability: 0.195
[2]; first compound 0.6325 µM
  relative viability: 0.213
[2]; first compound 2 µM
  relative viability: 0.206
[2]; first compound 6.325 µM
  relative viability: 0.191
[2]; first compound 20 µM
  relative viability: 0.206

## NCI-H1395
[1]; first compound 0.2 µM
  relative viability: 0.743
[1]; first compound 0.6325 µM
  relative viability: 0.701
[1]; first compound 2 µM
  relative viability: 0.704
[1]; first compound 6.325 µM
  relative viability: 0.738
[1]; first compound 20 µM
  relative viability: 0.663
TPCA-1 + Foretinib; first compound 0.04 µM
  relative viability: 1.05
TPCA-1 + Foretinib; first compound 0.1265 µM
  relative viability: 1.01
TPCA-1 + Foretinib; first compound 0.4 µM
  relative viability: 0.975
TPCA-1 + Foretinib; first compound 1.265 µM
  relative viability: 0.96
TPCA-1 + Foretinib; first compound 4 µM
  relative viability: 0.823
Lestaurtinib + OSI-027; first compound 0.005 µM
  relative viability: 0.546
Lestaurtinib + OSI-027; first compound 0.01581 µM
  relative viability: 0.655
Lestaurtinib + OSI-027; first compound 0.05 µM
  relative viability: 0.5
Lestaurtinib + OSI-027; first compound 0.1581 µM
  relative viability: 0.482
Lestaurtinib + OSI-027; first compound 0.5 µM
  relative viability: 0.374
[2]; first compound 0.2 µM
  relative viability: 0.889
[2]; first compound 0.6325 µM
  relative viability: 0.912
[2]; first compound 2 µM
  relative viability: 1.08
[2]; first compound 6.325 µM
  relative viability: 0.819
[2]; first compound 20 µM
  relative viability: 0.971

## NCI-H647
[1]; first compound 0.2 µM
  relative viability: 0.154
[1]; first compound 0.6325 µM
  relative viability: 0.186
[1]; first compound 2 µM
  relative viability: 0.149
[1]; first compound 6.325 µM
  relative viability: 0.203
[1]; first compound 20 µM
  relative viability: 0.158
TPCA-1 + Foretinib; first compound 0.04 µM
  relative viability: 1.2
TPCA-1 + Foretinib; first compound 0.1265 µM
  relative viability: 1.14
TPCA-1 + Foretinib; first compound 0.4 µM
  relative viability: 1.11
TPCA-1 + Foretinib; first compound 1.265 µM
  relative viability: 1.16
TPCA-1 + Foretinib; first compound 4 µM
  relative viability: 0.782
Lestaurtinib + OSI-027; first compound 0.005 µM
  relative viability: 0.6
Lestaurtinib + OSI-027; first compound 0.01581 µM
  relative viability: 0.562
Lestaurtinib + OSI-027; first compound 0.05 µM
  relative viability: 0.28
Lestaurtinib + OSI-027; first compound 0.1581 µM
  relative viability: 0.205
Lestaurtinib + OSI-027; first compound 0.5 µM
  relative viability: 0.143
[2]; first compound 0.2 µM
  relative viability: 0.19
[2]; first compound 0.6325 µM
  relative viability: 0.158
[2]; first compound 2 µM
  relative viability: 0.204
[2]; first compound 6.325 µM
  relative viability: 0.158
[2]; first compound 20 µM
  relative viability: 0.213

## NCI-H650
[1]; first compound 0.2 µM
  relative viability: 0.901
[1]; first compound 0.6325 µM
  relative viability: 0.701
[1]; first compound 2 µM
  relative viability: 0.826
[1]; first compound 6.325 µM
  relative viability: 0.735
[1]; first compound 20 µM
  relative viability: 0.944
TPCA-1 + Foretinib; first compound 0.04 µM
  relative viability: 1.01
TPCA-1 + Foretinib; first compound 0.1265 µM
  relative viability: 0.947
TPCA-1 + Foretinib; first compound 0.4 µM
  relative viability: 1.03
TPCA-1 + Foretinib; first compound 1.265 µM
  relative viability: 0.729
TPCA-1 + Foretinib; first compound 4 µM
  relative viability: 0.858
Lestaurtinib + OSI-027; first compound 0.005 µM
  relative viability: 0.536
Lestaurtinib + OSI-027; first compound 0.01581 µM
  relative viability: 0.6
Lestaurtinib + OSI-027; first compound 0.05 µM
  relative viability: 0.441
Lestaurtinib + OSI-027; first compound 0.1581 µM
  relative viability: 0.364
Lestaurtinib + OSI-027; first compound 0.5 µM
  relative viability: 0.313
[2]; first compound 0.2 µM
  relative viability: 0.813
[2]; first compound 0.6325 µM
  relative viability: 1.02
[2]; first compound 2 µM
  relative viability: 0.948
[2]; first compound 6.325 µM
  relative viability: 0.941
[2]; first compound 20 µM
  relative viability: 0.858

## EKVX
[1]; first compound 0.2 µM
  relative viability: 0.914
[1]; first compound 0.6325 µM
  relative viability: 0.83
[1]; first compound 2 µM
  relative viability: 0.904
[1]; first compound 6.325 µM
  relative viability: 0.678
[1]; first compound 20 µM
  relative viability: 0.842
TPCA-1 + Foretinib; first compound 0.04 µM
  relative viability: 0.627
TPCA-1 + Foretinib; first compound 0.1265 µM
  relative viability: 0.596
TPCA-1 + Foretinib; first compound 0.4 µM
  relative viability: 0.895
TPCA-1 + Foretinib; first compound 1.265 µM
  relative viability: 0.624
TPCA-1 + Foretinib; first compound 4 µM
  relative viability: 0.148
Lestaurtinib + OSI-027; first compound 0.005 µM
  relative viability: 0.773
Lestaurtinib + OSI-027; first compound 0.01581 µM
  relative viability: 0.697
Lestaurtinib + OSI-027; first compound 0.05 µM
  relative viability: 0.79
Lestaurtinib + OSI-027; first compound 0.1581 µM
  relative viability: 0.717
Lestaurtinib + OSI-027; first compound 0.5 µM
  relative viability: 0.602
[2]; first compound 0.2 µM
  relative viability: 0.394
[2]; first compound 0.6325 µM
  relative viability: 0.347
[2]; first compound 2 µM
  relative viability: 0.453
[2]; first compound 20 µM
  relative viability: 0.389

## NCI-H460
[1]; first compound 0.2 µM
  relative viability: 0.0304
[1]; first compound 0.6325 µM
  relative viability: 0.0338
[1]; first compound 2 µM
  relative viability: 0.0299
[1]; first compound 6.325 µM
  relative viability: 0.02
[1]; first compound 20 µM
  relative viability: 0.0356
TPCA-1 + Foretinib; first compound 0.04 µM
  relative viability: 1.05
TPCA-1 + Foretinib; first compound 0.1265 µM
  relative viability: 0.918
TPCA-1 + Foretinib; first compound 0.4 µM
  relative viability: 1.07
TPCA-1 + Foretinib; first compound 1.265 µM
  relative viability: 1.05
TPCA-1 + Foretinib; first compound 4 µM
  relative viability: 0.857
Lestaurtinib + OSI-027; first compound 0.005 µM
  relative viability: 0.498
Lestaurtinib + OSI-027; first compound 0.01581 µM
  relative viability: 0.859
Lestaurtinib + OSI-027; first compound 0.05 µM
  relative viability: 0.359
Lestaurtinib + OSI-027; first compound 0.1581 µM
  relative viability: 0.229
Lestaurtinib + OSI-027; first compound 0.5 µM
  relative viability: 0.204
[2]; first compound 0.2 µM
  relative viability: 0.0622
[2]; first compound 0.6325 µM
  relative viability: 0.0731
[2]; first compound 2 µM
  relative viability: 0.0616
[2]; first compound 6.325 µM
  relative viability: 0.0608
[2]; first compound 20 µM
  relative viability: 0.0583

## NCI-H2342
[1]; first compound 0.2 µM
  relative viability: 0.761
[1]; first compound 0.6325 µM
  relative viability: 0.654
[1]; first compound 2 µM
  relative viability: 0.767
[1]; first compound 6.325 µM
  relative viability: 0.615
[1]; first compound 20 µM
  relative viability: 0.8
TPCA-1 + Foretinib; first compound 0.04 µM
  relative viability: 1.03
TPCA-1 + Foretinib; first compound 0.1265 µM
  relative viability: 0.998
TPCA-1 + Foretinib; first compound 0.4 µM
  relative viability: 1.15
TPCA-1 + Foretinib; first compound 1.265 µM
  relative viability: 0.992
TPCA-1 + Foretinib; first compound 4 µM
  relative viability: 0.962
Lestaurtinib + OSI-027; first compound 0.005 µM
  relative viability: 0.571
Lestaurtinib + OSI-027; first compound 0.01581 µM
  relative viability: 0.672
Lestaurtinib + OSI-027; first compound 0.05 µM
  relative viability: 0.547
Lestaurtinib + OSI-027; first compound 0.1581 µM
  relative viability: 0.648
Lestaurtinib + OSI-027; first compound 0.5 µM
  relative viability: 0.549
[2]; first compound 0.2 µM
  relative viability: 0.781
[2]; first compound 0.6325 µM
  relative viability: 0.764
[2]; first compound 2 µM
  relative viability: 0.838
[2]; first compound 6.325 µM
  relative viability: 0.718
[2]; first compound 20 µM
  relative viability: 0.747

— the supplement of paper PMC10307832
